# Key:
# Assay type in all cases: in vivo
# [1] = system: ryegrass, Italian (italian ryegrass, Lolium multiflorum); assay: Test A preemergence soil spray, visual injury rating 0-100; details: 10 days, 0 = no effect, 100 = complete control
# Source text: (§1) Seeds of plant species selected from barnyardgrass (Echinochloa crus-galli), blackgrass (Alopecurus myosuroides), corn (Zea mays), foxtail, giant (giant foxtail, Setaria faberi), green foxtail (Setaria viridis), goosegrass (Eleusine indica), kochia (Bassia scoparia), oat, wild (wild oat, Avena fatua), palmer (palmer amaranth, palmer pigweed, Amaranthus palmeri), ragweed (common ragweed, Ambrosia artemisiifolia), ryegrass, Italian (italian ryegrass, Lolium multiflorum), soybean (Glycine max) and wheat (Triticum aestivum) were planted into a blend of loam soil and sand and treated preemergence with a directed soil spray using test chemicals formulated in a non-phytotoxic solvent mixture which included a surfactant.
# (§2) At the same time, plants selected from these crops and weed species and also galium (catchweed bedstraw, Galium aparine) and horseweed (Erigeron canadensis) were planted in pots containing the same blend of loam soil and sand and treated with postemergence applications of test chemicals formulated in the same manner. Plants ranged in height from 2 to 10 cm and were in the one- to two-leaf stage for the postemergence treatment. Treated plants and untreated controls were maintained in a greenhouse for 10 days, after which time all treated plants were compared to untreated controls and visually evaluated for injury. Plant response ratings, summarized in Table A, are based on a 0 to 100 scale where 0 is no effect and 100 is complete control. A dash (-) response means no test result.
# kochia (Bassia scoparia) [2] = assay: as above; details: 10 days, 0 = no effect, 100 = complete control
# Source text: as §1, §2
# [3] = system: palmer (palmer amaranth, palmer pigweed, Amaranthus palmeri); assay: as above; details: 10 days, 0 = no effect, 100 = complete control
# Source text: as §1, §2
# [4] = system: wheat (Triticum aestivum); assay: as above; details: 10 days, 0 = no effect, 100 = complete control
# Source text: as §1, §2
# [5] = system: oat, wild (wild oat, Avena fatua); assay: as above; details: 10 days, 0 = no effect, 100 = complete control
# Source text: as §1, §2
# corn (Zea mays) [6] = assay: as above; details: 10 days, 0 = no effect, 100 = complete control
# Source text: as §1, §2
# [7] = system: barnyardgrass (Echinochloa crus-galli); assay: as above; details: 10 days, 0 = no effect, 100 = complete control
# Source text: as §1, §2
# [8] = system: blackgrass (Alopecurus myosuroides); assay: as above; details: 10 days, 0 = no effect, 100 = complete control
# Source text: as §1, §2
# [9] = system: ragweed (common ragweed, Ambrosia artemisiifolia); assay: as above; details: 10 days, 0 = no effect, 100 = complete control
# Source text: as §1, §2
# soybean (Glycine max) [10] = assay: as above; details: 10 days, 0 = no effect, 100 = complete control
# Source text: as §1, §2
# [11] = system: galium (catchweed bedstraw, Galium aparine); assay: Test A postemergence application, visual injury rating 0-100; details: Postemergence
# Source text: as §1, §2
# [12] = system: horseweed (Erigeron canadensis); assay: as above; details: Postemergence
# Source text: as §1, §2
# [13] = system: ryegrass, Italian (italian ryegrass, Lolium multiflorum); assay: as above; details: Postemergence
# Source text: as §1, §2
# kochia (Bassia scoparia) [14] = assay: as above; details: Postemergence
# Source text: as §1, §2
# [15] = system: palmer (palmer amaranth, palmer pigweed, Amaranthus palmeri); assay: as above; details: Postemergence
# Source text: as §1, §2
# [16] = system: wheat (Triticum aestivum); assay: as above; details: Postemergence
# Source text: as §1, §2
# [17] = system: oat, wild (wild oat, Avena fatua); assay: as above; details: Postemergence
# Source text: as §1, §2
# corn (Zea mays) [18] = assay: as above; details: Postemergence
# Source text: as §1, §2
# [19] = system: barnyardgrass (Echinochloa crus-galli); assay: as above; details: Postemergence
# Source text: as §1, §2
# [20] = system: blackgrass (Alopecurus myosuroides); assay: as above; details: Postemergence
# Source text: as §1, §2
# [21] = system: ragweed (common ragweed, Ambrosia artemisiifolia); assay: as above; details: Postemergence
# Source text: as §1, §2
# soybean (Glycine max) [22] = assay: as above; details: Postemergence
# Source text: as §1, §2
# [23] = 31 g ai/ha, greenhouse 10 days, 0 no effect, 100 complete control
# [24] = 125 g ai/ha, 10 days, 0 is no effect, 100 is complete control
smiles,measurement,setting,value
CC1(C(=O)NC2CC=C(C(=O)NS(=O)(=O)C3CC3)C2)CN(c2cc(Cl)cc(Cl)c2)C(=O)O1 (centres unmarked) [Compound 75],"Ryegrass, Italian plant response rating (0-100)",[1]; 31 g ai/ha,10
same,"Ryegrass, Italian plant response rating (0 to 100 scale)",[1]; 125 g ai/ha,70
same,Kochia plant response rating (0-100),kochia (Bassia scoparia) [2]; 31 g ai/ha,50
same,Kochia plant response rating (0 to 100 scale),kochia (Bassia scoparia) [2]; 125 g ai/ha,90
same,"Amaranth, Palmer plant response rating (0-100)",[3]; 31 g ai/ha,50
same,"Amaranth, Palmer plant response rating (0 to 100 scale)",[3]; 125 g ai/ha,90
same,Wheat plant response rating (0-100),[4]; 31 g ai/ha,0
same,Wheat plant response rating (0 to 100 scale),[4]; 125 g ai/ha,40
same,"Oat, Wild plant response rating (0-100)",[5]; 31 g ai/ha,0
same,"Oat, Wild plant response rating (0 to 100 scale)",[5]; 125 g ai/ha,0
same,Corn plant response rating (0-100),corn (Zea mays) [6]; 31 g ai/ha,0
same,Corn plant response rating (0 to 100 scale),corn (Zea mays) [6]; 125 g ai/ha,0
same,Barnyardgrass plant response rating (0-100),[7]; 31 g ai/ha,0
same,Barnyardgrass plant response rating (0 to 100 scale),[7]; 125 g ai/ha,80
same,Blackgrass plant response rating (0-100),[8]; 31 g ai/ha,20
same,Blackgrass plant response rating (0 to 100 scale),[8]; 125 g ai/ha,40
same,Ragweed plant response rating (0-100),[9]; 31 g ai/ha,10
same,Ragweed plant response rating (0 to 100 scale),[9]; 125 g ai/ha,0
same,Soybean plant response rating (0-100),soybean (Glycine max) [10]; 31 g ai/ha,30
same,Soybean plant response rating (0 to 100 scale),soybean (Glycine max) [10]; 125 g ai/ha,10
same,Galium plant response rating (0 to 100 scale),[11]; [23],40
same,Galium plant response rating (0 to 100 scale),[11]; [24],80
same,Horseweed plant response rating (0 to 100 scale),[12]; [23],40
same,Horseweed plant response rating (0 to 100 scale),[12]; [24],70
same,"Ryegrass, Italian plant response rating (0 to 100 scale)",[13]; [23],50
same,"Ryegrass, Italian plant response rating (0 to 100 scale)",[13]; [24],70
same,Kochia plant response rating (0 to 100 scale),kochia (Bassia scoparia) [14]; [23],80
same,Kochia plant response rating (0 to 100 scale),kochia (Bassia scoparia) [14]; [24],80
same,"Amaranth, Palmer / Pigweed, Palmer plant response rating (0 to 100 scale)",[15]; [23],70
same,"Amaranth, Palmer / Pigweed, Palmer plant response rating (0 to 100 scale)",[15]; [24],90
same,Wheat plant response rating (0 to 100 scale),[16]; [23],70
same,Wheat plant response rating (0 to 100 scale),[16]; [24],80
same,"Oat, Wild plant response rating (0 to 100 scale)",[17]; [23],10
same,"Oat, Wild plant response rating (0 to 100 scale)",[17]; [24],90
same,Corn plant response rating (0 to 100 scale),corn (Zea mays) [18]; [23],70
same,Corn plant response rating (0 to 100 scale),corn (Zea mays) [18]; [24],90
same,Barnyardgrass plant response rating (0 to 100 scale),[19]; [23],80
same,Barnyardgrass plant response rating (0 to 100 scale),[19]; [24],90
same,Blackgrass plant response rating (0 to 100 scale),[20]; [23],0
same,Blackgrass plant response rating (0 to 100 scale),[20]; [24],80
same,Ragweed plant response rating (0 to 100 scale),[21]; [23],0
same,Ragweed plant response rating (0 to 100 scale),[21]; [24],60
same,Soybean plant response rating (0 to 100 scale),soybean (Glycine max) [22]; [23],20
same,Soybean plant response rating (0 to 100 scale),soybean (Glycine max) [22]; [24],50

# Source: patent US20260285850A1, “SUBSTITUTED OXAZOLIDINONES AND IMIDAZOLINONES AS HERBICIDES” (FMC CORPORATION, priority 2023, published 2026)
